From PubChem BioAssay AID200 (DTP/NCI, 2004)
“And” between values parts separate entries of the source, which are not always exact repeats. Equal values may be shown once. Inconclusive results and toxic doses are left out. *1 amine or outer side, *2 acyl side, *3 side chain or, on linkers, in order; H or OH if unused. Where a SMILES comes first, the peptide text is derived from it. Bridges are numbered along the chain shown (N, C = ends). Roman numbers before positions name the chains, in order. [ ]: non-standard residue; d: D form. The star is where a group is joined. Actinocin(9to1) = Cc1c2oc3c(C)ccc(C(=O)[*:1])c3nc-2c(C(=O)[*:2])c(N)c1=O; Cbz = O=C(OCc1ccccc1)*; NMeA = CN[CH](C)C(=O)O; Nva = CCC[CH](N)C(=O)O; Sar = CNCC(=O)O

Test system: B6C3F1 mice, B16 melanoma ip, median survival T/C
Experiment: NCI In Vivo Anticancer Drug Screen. Data for tumor model B16 Melanoma (intraperitoneal) in B6C3F1 mice
Conditions: endpoint: median survival time, higher = longer survival
Experimental: The antitumor activity of compounds was measured in mice bearing transplantable tumors. Survival or tumor size were measured and the results are expressed as the measurement made in the treated group (T) divided by the measurement made in the vehicle treated control group (C). The tumor model used in this assay is B16 Melanoma (intraperitoneal) in B6C3F1 mice

[1] = dose: 6.25 mg/kg/injection, schedule: Q01DX009 (ip), vehicle: saline
[2] = dose: 12.5 mg/kg/injection, schedule: Q01DX009 (ip), vehicle: saline
[3] = dose: 25.0 mg/kg/injection, schedule: Q01DX009 (ip), vehicle: saline
[4] = dose: 50.0 mg/kg/injection, schedule: Q01DX009 (ip), vehicle: saline
[5] = dose: 50.0 mg/kg/injection, schedule: Q01DX009 (ip), vehicle: saline with Tween-80
[6] = dose: 100.0 mg/kg/injection, schedule: Q01DX009 (ip), vehicle: saline with Tween-80
[7] = dose: 200.0 mg/kg/injection, schedule: Q01DX009 (ip), vehicle: saline with Tween-80
[8] = dose: 100.0 mg/kg/injection, schedule: Q01DX009 (ip), vehicle: Klucel (hydroxypropylcellulose) (HPC)
[9] = dose: 200.0 mg/kg/injection, schedule: Q01DX009 (ip), vehicle: Klucel (hydroxypropylcellulose) (HPC)
[10] = dose: 400.0 mg/kg/injection, schedule: Q01DX009 (ip), vehicle: Klucel (hydroxypropylcellulose) (HPC)
[11] = dose: 100.0 mg/kg/injection, schedule: Q01DX009 (ip), vehicle: saline
[12] = dose: 200.0 mg/kg/injection, schedule: Q01DX009 (ip), vehicle: saline
[13] = dose: 3.12 mg/kg/injection, schedule: Q01DX009 (ip), vehicle: saline with Tween-80
[14] = dose: 6.25 mg/kg/injection, schedule: Q01DX009 (ip), vehicle: saline with Tween-80
[15] = dose: 12.5 mg/kg/injection, schedule: Q01DX009 (ip), vehicle: saline with Tween-80
[16] = dose: 25.0 mg/kg/injection, schedule: Q01DX009 (ip), vehicle: saline with Tween-80
[17] = dose: 1.56 mg/kg/injection, schedule: Q01DX009 (ip), vehicle: saline with Tween-80
[18] = dose: 3.12 mg/kg/injection, schedule: Q01DX009 (ip), vehicle: saline
[19] = dose: 50.0 mg/kg/injection, schedule: Q01DX009 (ip), vehicle: Klucel (hydroxypropylcellulose) (HPC)

For `O=C(Nc1cccnc1)c1ccc([N+](=O)[O-])s1`, the T/C (dose: 1.13 mg/kg/injection, schedule: Q01DX009 (ip), vehicle: saline) was 96 % of control, the T/C (dose: 1.88 mg/kg/injection, schedule: Q01DX009 (ip), vehicle: saline) was 92 % of control and the T/C (dose: 3.13 mg/kg/injection, schedule: Q01DX009 (ip), vehicle: saline) was 97 % of control. For the same compound, the T/C (dose: 5.21 mg/kg/injection, schedule: Q01DX009 (ip), vehicle: saline) was 94 % of control, the T/C [1] was 103 % of control and the T/C (dose: 8.69 mg/kg/injection, schedule: Q01DX009 (ip), vehicle: saline) was 89 % of control. For the same compound, the T/C [2] was 97 % of control and the T/C [3] was 87 % of control and 99 % of control.
With `COc1ccc2c(c1)/C(=C/CCN(C)C)c1ccccc1S2` the T/C [2] was 101 % of control, the T/C [3] was 101 % of control and the T/C [4] was 101 % of control.
`CC(C)(C)OC(=O)NC(CO)C(=O)O` (stereo not drawn) was tested, and the T/C [5] was 95 % of control, the T/C [6] was 95 % of control and the T/C [7] was 90 % of control.
In the case of `Cc1c2ccnc(C(N)=O)c2c(C)c2c1[nH]c1ccccc12`, the T/C (dose: 62.0 mg/kg/injection, schedule: Q04DX003 (ip), vehicle: distilled water + Tween-80) was 96 % of control, the T/C (dose: 125.0 mg/kg/injection, schedule: Q04DX003 (ip), vehicle: distilled water + Tween-80) was 120 % of control and the T/C (dose: 200.0 mg/kg/injection, schedule: Q01DX009 (ip), vehicle: distilled water + Tween-80) was 117 % of control. For the same compound, the T/C (dose: 250.0 mg/kg/injection, schedule: Q04DX003 (ip), vehicle: distilled water + Tween-80) was 106 % of control, the T/C (dose: 400.0 mg/kg/injection, schedule: Q01DX009 (ip), vehicle: distilled water + Tween-80) was 123 % of control and the T/C (dose: 500.0 mg/kg/injection, schedule: Q04DX003 (ip), vehicle: distilled water + Tween-80) was 100 % of control. The T/C (dose: 1000.0 mg/kg/injection, schedule: Q04DX003 (ip), vehicle: distilled water + Tween-80) was 124 % of control.
For `CCCC(NC(=O)OCc1ccccc1)C(=O)NC(C(=O)O)C(C)C` (stereo not drawn) (Cbz-[Nva]-Val-OH; configuration not given here), the T/C [8] was 102 % of control, the T/C [9] was 109 % of control and the T/C [10] was 99 % of control.
In the case of `CC(=O)Oc1c(C)[nH]ccc1=O`, the T/C [3] was 93 % of control and 104 % of control, the T/C [4] was 108 % of control and 105 % of control and the T/C [11] was 115 % of control and 94 % of control. For the same compound, the T/C [12] was 94 % of control and 106 % of control.
`COc1cc2c(c(OC)c1OC)-c1ccc(OC)c(=O)cc1[C@@H](NC(=O)CCl)CC2` was tested, and the T/C (dose: 0.12 mg/kg/injection, schedule: Q01DX009 (ip), vehicle: saline with Tween-80) was 154 % of control and the T/C (dose: 0.25 mg/kg/injection, schedule: Q01DX009 (ip), vehicle: saline with Tween-80) was 154 % of control.
In the case of `BrCC[Se]c1ccccc1`, the T/C [13] was 113 % of control and 104 % of control, the T/C [14] was 100 % of control and the T/C [15] was 119 % of control and 103 % of control. For the same compound, the T/C [16] was 113 % of control and 100 % of control and the T/C [5] was 95 % of control and 103 % of control.
For `O=[n+]1c2ccccc2n([O-])c2ccccc21.[Cl][Ni][Cl]`, the T/C [17] was 103 % of control, the T/C [13] was 95 % of control and the T/C [14] was 97 % of control. For the same compound, the T/C [15] was 113 % of control and the T/C [16] was 91 % of control.
In the case of `[I][Hg][CH2]C1COC([CH2][Hg][I])CO1` (stereo not drawn), the T/C [13] was 93 % of control, the T/C [18] was 97 % of control and the T/C [14] was 109 % of control. For the same compound, the T/C [1] was 101 % of control, the T/C [15] was 113 % of control and the T/C [2] was 87 % of control. For the same compound, the T/C [16] was 119 % of control, the T/C [3] was 100 % of control and the T/C [5] was 106 % of control. For the same compound, the T/C [4] was 99 % of control and the T/C [11] was 96 % of control.
`CC(C)(C)C(=O)Oc1ccc(N=C(N)N)cc1` was tested, and the T/C [2] was 94 % of control, the T/C [3] was 94 % of control and the T/C [4] was 97 % of control. The T/C [11] was 92 % of control.
In the case of `NCC(O)c1ccc(O)c(O)c1` (stereo not drawn), the T/C (dose: 0.39 mg/kg/injection, schedule: Q01DX009 (ip), vehicle: suspension in saline) was 109 % of control, the T/C (dose: 0.75 mg/kg/injection, schedule: Q01DX009 (ip), vehicle: suspension in saline) was 96 % of control and the T/C (dose: 1.5 mg/kg/injection, schedule: Q01DX009 (ip), vehicle: suspension in saline) was 103 % of control. For the same compound, the T/C (dose: 3.0 mg/kg/injection, schedule: Q01DX009 (ip), vehicle: suspension in saline) was 100 % of control, the T/C (dose: 6.0 mg/kg/injection, schedule: Q01DX009 (ip), vehicle: suspension in saline) was 100 % of control and 106 % of control and the T/C (dose: 12.0 mg/kg/injection, schedule: Q01DX009 (ip), vehicle: suspension in saline) was 124 % of control and 105 % of control. For the same compound, the T/C (dose: 24.0 mg/kg/injection, schedule: Q01DX009 (ip), vehicle: suspension in saline) was 100 % of control.
For `Cc1ccc(S(=O)(=O)OCOS(=O)(=O)c2ccc(C)cc2)cc1`, the T/C [19] was 120 % of control and 122 % of control, the T/C [8] was 117 % of control and the T/C [9] was 154 % of control. For the same compound, the T/C [10] was 191 % of control.
For `CC(=O)NO`, the T/C (dose: 50.0 mg/kg/injection, schedule: Q01DX009 (ip), vehicle: water) was 89 % of control, the T/C (dose: 100.0 mg/kg/injection, schedule: Q01DX009 (ip), vehicle: water) was 102 % of control and the T/C (dose: 200.0 mg/kg/injection, schedule: Q01DX009 (ip), vehicle: water) was 100 % of control. For the same compound, the T/C (dose: 400.0 mg/kg/injection, schedule: Q01DX009 (ip), vehicle: water) was 112 % of control.
For `Cc1cc(NCCCCCCNc2cc(C)nc3cc(N(C)C)ccc23)c2ccc(N(C)C)cc2n1`, the T/C (dose: 3.13 mg/kg/injection, schedule: Q01DX009 (ip), vehicle: distilled water + Tween-80 + alcohol) was 100 % of control, the T/C (dose: 6.25 mg/kg/injection, schedule: Q01DX009 (ip), vehicle: distilled water + Tween-80 + alcohol) was 112 % of control and the T/C (dose: 12.5 mg/kg/injection, schedule: Q01DX009 (ip), vehicle: distilled water + Tween-80 + alcohol) was 112 % of control and 122 % of control.
`C=C(C(=O)O)C(N)C(=O)O` (stereo not drawn) was tested, and the T/C [3] was 97 % of control, the T/C [4] was 106 % of control and the T/C [11] was 106 % of control. The T/C [12] was 90 % of control.
With `CC(C)(C)OC(=O)NC(CC(=O)OCc1ccccc1)C(=O)ON1C(=O)CCC1=O` (stereo not drawn) the T/C (dose: 25.0 mg/kg/injection, schedule: Q01DX009 (ip), vehicle: Klucel (hydroxypropylcellulose) (HPC)) was 93 % of control, the T/C [19] was 91 % of control and the T/C [8] was 95 % of control.
In the case of `Cc1c2oc3c(C)ccc(C(=O)NC4C(=O)NC(C(C)C)C(=O)N5CCCC5C(=O)N(C)CC(=O)N(C)C(C)C(=O)OC4C)c3nc-2c(C(=O)NC2C(=O)NC(C(C)C)C(=O)N3CCCC3C(=O)N(C)CC(=O)N(C)C(C)C(=O)OC2C)c(N)c1=O` (stereo not drawn) (I: TVP[Sar][NMeA] / II: TVP[Sar][NMeA]; ester I:1-I:C, II:1-II:C; linker I:N-II:N via Actinocin(9to1); configuration not given here), the T/C (dose: 0.25 mg/kg/injection, schedule: Q04DX003 (ip), vehicle: saline + alcohol) was 116 % of control, the T/C (dose: 0.5 mg/kg/injection, schedule: Q04DX003 (ip), vehicle: saline + alcohol) was 118 % of control and the T/C (dose: 1.0 mg/kg/injection, schedule: Q04DX003 (ip), vehicle: saline + alcohol) was 112 % of control and 113 % of control. The T/C (dose: 2.0 mg/kg/injection, schedule: Q04DX003 (ip), vehicle: saline + alcohol) was 116 % of control and 104 % of control and the T/C (dose: 4.0 mg/kg/injection, schedule: Q04DX003 (ip), vehicle: saline + alcohol) was 115 % of control.
For `C[n+]1c(-c2cccc3ccccc23)c2cc(N)ccc2c2ccccc21`, the T/C (dose: 1.56 mg/kg/injection, schedule: Q01DX009 (ip), vehicle: saline) was 117 % of control, the T/C [18] was 122 % of control and the T/C [1] was 119 % of control.
For `O=C(CO)c1ccc([N+](=O)[O-])cc1`, the T/C [13] was 113 % of control, the T/C [14] was 94 % of control and the T/C [16] was 105 % of control. For the same compound, the T/C [5] was 100 % of control and the T/C [6] was 93 % of control.
With `Oc1cc2ccccc2c(-c2c(O)c(O)cc3ccccc23)c1O` the T/C (dose: 0.78 mg/kg/injection, schedule: Q01DX009 (ip), vehicle: saline with Tween-80) was 95 % of control, the T/C [17] was 115 % of control and the T/C [13] was 99 % of control. For the same compound, the T/C [14] was 111 % of control and 93 % of control and the T/C [7] was 100 % of control.
